The values that follow come from patent publication US20120148677A1, “CONTROLLED RELEASE PARTICLES CONTAINING ACID FIBROBLAST GROWTH FACTOR” (Taipei Veterans General Hospital, priority 2010, published 2012).

The subject of one series is PC-12 cells. Put plainly: 6-OHDA neurotoxicity in PC-12 cells, MTT cell viability assay. Format: cell-based. Here is the method: The neurotoxicity was test by PC-12 cells which were rat pheochromocytoma cell line. The cells were supplied by the Bioresource Collection and Research Center, Food Industry Research and Development Institute, Hsinchu, Taiwan, and maintained in RPMI 1640 supplemented with 10% HBS, 5% FBS, 1% penicillin/streptomycin (Gibco) at 37° C. in a humidified atmosphere containing 5% CO2 and the culture medium was changed every 2 days.
6-hydroxydopamin (6-OHDA) is a neurotoxin, which leads to apoptosis of catecholaminergic cells. This pharmacological mechanism can be used to test neuron protecting efficiency of aimed drugs. The cells were seeded in 96 well plates at a density of 4×10^4 cells/well, which were pre-coated with collagen. Following 24 hrs of starvation, the medium was changed into 5% serum. The experimental groups were given different treatments and added with 6-OHDA (sigma) until reaching the concentration of 100 uM. The medium without 6-OHDA works as control. The relative number of viable cells was monitored by MTT assay.
MTT (3-(4,5-Dimethylthiazol-2-yl)-2,5-diphenyltetrazolium bromide) was a tetrazolium salt that can be reduced to purple-colored formazan by normal cell. The stock solution of MTT (5 mg/ml) was added into each well to make the medium of 0.5 mg/ml MTT and cells were incubated for 4 h. The supernatant was removed to obtain the MTT metabolic product, formazan, which was then dissolved in 120 ul DMSO (dimethylsulfoxide, sigma) and placed on a shaking table for 5 min until thoroughly dissolved. 100 ul of dissolved-formazan from each well was transferred into another plate to measure the absorbance with 560 nm at background 670 nm.
The dosage used was 100 uM, which caused about 40% apoptosis. […] The empty particles (without aFGF) and the particles entrapping an aFGF were soaked in culture medium for 2 days at 4° C. The supernatant was then collected and diluted at different concentrations for treatment of the 6-OHDA-damaged PC-12 cells.
Background: Tetrazolium dyes change colour on reduction, which living cells bring about.

For a further series, the target named is T1, trypsin (Bos taurus, UniProt P00760).
T1 construct: purchased Sigma T1426
T1 sequence (P00760 24-246): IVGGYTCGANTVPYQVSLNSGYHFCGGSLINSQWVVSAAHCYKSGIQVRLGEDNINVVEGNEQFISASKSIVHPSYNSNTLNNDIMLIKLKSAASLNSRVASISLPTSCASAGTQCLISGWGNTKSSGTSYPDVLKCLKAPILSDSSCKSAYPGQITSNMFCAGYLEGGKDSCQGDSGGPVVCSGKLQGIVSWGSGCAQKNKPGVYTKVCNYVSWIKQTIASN
Description: Proteolytic sensitivity to trypsin digestion, Western blot. Format: in vitro ADME. The settings on record: after 5 min of digestion, aFGF:trypsin 1:400, PBS, 37° C. Here is the method: In order to test how well of the particles can protect aFGF from an enzyme digestion, we mixed aFGF or the particles entrapping aFGF with a protein enzyme, trypsin. The aFGF and trypsin (Sigma, T1426) was mixed with the ratio of 1:400 in PBS bathed at 37° C. Ten microliters of product was taken out at various time intervals to mix with 10 ul of 2×SDS-sample buffer. The solution was then immediately being boiled for 5 mins to cease enzyme reaction.
As shown in the results, the binding of aFGF to heparin increased the stability to overcome the challenge in vivo. To simulate physiological environment, the experiment was held at 37° C. The intact aFGF and aFGF in the particles of the invention were digested by Trypsin respectively, and aFGF antibody was used to detect the remaining aFGF. With the increase in time of enzyme digestion, the amount of aFGF decreases.
For orientation: In western blotting, separated proteins are transferred to a membrane and probed.

With `NCCc1cc(O)c(O)cc1O` [6-OHDA, 6-hydroxydopamin, reference compound], the apoptosis result in the series on PC-12 cells (100 uM 6-OHDA, PC-12 cells) is given as “about 40%”. In addition, the EC50 with PC-12 cells (Rattus norvegicus, PC-12, read-out: ED50 (neurotoxicity)) was ~125 µM.
On to acid fibroblast growth factor [aFGF], for which the “remaining aFGF band after trypsin digestion” value with trypsin was “almost disappeared”. Besides, the survival rate result is given as “more than 72.63%” with PC-12 cells (10 pg/ml aFGF, 100 uM 6-OHDA, PC-12 cells) and 88.41% with PC-12 cells (10 ng/ml aFGF, 100 uM 6-OHDA, PC-12 cells). For the same molecule, the “effect on PC-12 death” value in the series on PC-12 cells (6-OHDA-treated PC-12 cells, FIG. 5) was “significantly blocks PC-12 death”.
